From article PMC7819857, “Identification of Inhibitors of Integrin Cytoplasmic Domain Interactions With Syk” (Frontiers in Immunology, 2021)

System: FcγRI signaling via Syk in THP-1 cells
Assay: FcγRI-crosslinking-induced phosphorylation of Syk in THP-1 cells
Format: cell-based, human
Settings: 100 µM loaded cells, anti-FcγRI mAb 276426
Description: Syk phosphorylation assays were performed by immobilizing vascular cell adhesion molecule-1 (VCAM)-1 (3 ug/ml), CS-1-BSA (10 ug/ml), or specific monoclonal antibodies (anti-FcγRI mAb 276426, anti-α4β1 mAb 19H8, anti-β2 mAb 76C3, anti-αvβ3 mAb LM609 all at 5 ug/ml) overnight at 4°C in Tris-HCl pH 7.5, 150 mM NaCl, in 6-well plates (non-tissue culture treated, Becton Dickenson, cat# BD351146). Plates were then blocked with BSA (2% w/v) for 1 h at room temperature. […] After electrophoresis, proteins were transferred to nitrocellulose for 1 h 100 V room temperature, blocked in 5% non-fat milk in TBS-T, and probed with the indicated primary antibody at 1:1,000 overnight at 4°C, followed by species-appropriate HRP secondary antibody (Southern Biotech) at 1:5,000 (30 min at room temperature), and detected using Pierce West Pico (Thermo Scientific cat# 34580). […]
Figure 6 Selective inhibition of integrin signaling by ceftazidime. […] Data are expressed as mean ± range from duplicate determinations. […] Kinase activity is expressed as percent of maximum signal. Data are expressed as mean ± SEM (n = 3). **p < 0.01 (D) Selective effects of ceftazidime on integrin signaling. […] Phosphorylation of Syk (left and right panel) and Pyk-2 (center panel) was analyzed by immunoprecipitation and western blot. […] Results are expressed as the mean ± SEM. […]

For CC(C)(O/N=C(\C(=O)N[C@@H]1C(=O)N2C(C(=O)[O-])=C(C[n+]3ccccc3)CS[C@H]12)c1csc(N)n1)C(=O)O [ceftazidime], the “tyrosine phosphorylation of Syk on FcγRI crosslinking” value was “not inhibited”.
